Experimental findings from ChEMBL document CHEMBL1128011, “Discovery of nonpeptide potent conformationally restricted angiotensin II receptor antagonists” (Bioorg Med Chem Lett, 1994) are described below.

Molecules are shown by their SMILES.

The first experiment is filed under the species Oryctolagus cuniculus. Briefly: Compound was tested in vitro for its ability to antagonize the AII-mediated contraction of rabbit aortic rings. The experiment is classed as functional, Aorta.
Conditions: not given
`CCCCc1ncc2n1[C@H](c1ccc(-c3ccccc3-c3nn[nH]n3)cc1)CC[C@@H]2N1C(=O)CCC1=O` displayed a pA2 of 8.6.

The same experiment, now with this note: Oryctolagus cuniculus, Aorta; read-out: pA2 (converted).
For the molecule `CCCCc1nc(Cl)c2n1[C@H](c1ccc(-c3ccccc3-c3nn[nH]n3)cc1)CC[C@@H]2N1C(=O)CCC1=O`, the Kb is 0.00158 µM.

The next experiment deals with T1, Type-1 angiotensin II receptor B (Rattus norvegicus, UniProt P29089).
T1 sequence (P29089 whole entry): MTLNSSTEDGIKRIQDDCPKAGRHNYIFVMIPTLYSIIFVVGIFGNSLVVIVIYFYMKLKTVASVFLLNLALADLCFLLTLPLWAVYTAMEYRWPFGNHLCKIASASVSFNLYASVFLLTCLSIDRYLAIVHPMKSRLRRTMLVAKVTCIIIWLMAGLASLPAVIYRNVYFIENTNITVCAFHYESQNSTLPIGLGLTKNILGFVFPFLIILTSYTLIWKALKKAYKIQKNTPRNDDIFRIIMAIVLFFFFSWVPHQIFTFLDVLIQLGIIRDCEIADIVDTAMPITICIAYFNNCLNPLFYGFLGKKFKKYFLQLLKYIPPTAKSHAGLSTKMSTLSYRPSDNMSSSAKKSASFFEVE
Briefly: Displacement of [125-I]-labeled angiotensin II from Angiotensin II receptor, type 1 of rat uterine membranes. The format is cell membranes, Membrane.
Conditions: not given
Regarding `CCCCc1nn(CCCC)c(=O)n1Cc1ccc(-c2ccccc2-c2nnn[nH]2)cc1`, the IC50 came out at 0.005 µM.

`CCCCN1N=C(CCC)C(Cc2ccc(-c3ccccc3-c3nn[nH]n3)cc2)C1=O` (stereo not given) returned a half-maximal inhibitory concentration (IC50) of 0.5 µM.

On to `CCCCn1nc2n(c1=O)C(c1ccc(-c3ccccc3-c3nn[nH]n3)cc1)CCC2CCC` (stereo in doubt; 13), for which the IC50 is 1.6 µM.

For `CCCCn1nc(C(CCC)CCO)n(Cc2ccc(-c3ccccc3-c3nnn(C(c4ccccc4)(c4ccccc4)c4ccccc4)n3)cc2)c1=O` (stereo not given), the IC50 was greater than 10 µM.

Consider `CCCCN1N=C(CCC)/C(=C/c2ccc(-c3ccccc3-c3nn[nH]n3)cc2)C1=O`, for which the IC50 was 45 µM.

Consider `CCCCn1nc2n(c1=O)C(c1ccc(-c3ccccc3-c3nn[nH]n3)cc1)CCC2CCC` (stereo in doubt; 12), for which the IC50 was found to be 1.8 µM.

Consider `CCCCc1ncc2n1C(c1ccc(-c3ccccc3-c3nnn[nH]3)cc1)CC=C2` (stereo not given), for which the concentration for half-maximal inhibition (IC50) was greater than 10 µM.

For the molecule `CCCC1CCC(c2ccc(-c3ccccc3-c3nnn[nH]3)cc2)n2c1n[nH]c2=O` (stereo not given), the IC50 is greater than 10 µM.

Molecule `CCCCn1nc2n(c1=O)C(c1ccc(-c3ccccc3-c3nnn(C(c4ccccc4)(c4ccccc4)c4ccccc4)n3)cc1)CCC2CCC` (stereo not given) gave an IC50 greater than 10 µM.

Turning to `CCCCn1nc(C(CCC)CC2=NC(C)(C)CO2)n(Cc2ccc(-c3ccccc3-c3nnn(C(c4ccccc4)(c4ccccc4)c4ccccc4)n3)cc2)c1=O` (stereo not given), the IC50 is greater than 10 µM.

Take `CCCCn1nc(C(Br)CCC)n(Cc2ccc(-c3ccccc3-c3nnn(C(c4ccccc4)(c4ccccc4)c4ccccc4)n3)cc2)c1=O` (stereo not given): the IC50 was greater than 10 µM.

Consider `CCCCc1nn(CCCC)c(=O)n1Cc1ccc(-c2ccccc2-c2nnn(C(c3ccccc3)(c3ccccc3)c3ccccc3)n2)cc1`, for which the IC50 was greater than 10 µM.

The molecule `CCCCn1nc(C(CCC)CCBr)n(Cc2ccc(-c3ccccc3-c3nnn(C(c4ccccc4)(c4ccccc4)c4ccccc4)n3)cc2)c1=O` (stereo not given) returned an IC50 greater than 10 µM.

For the next experiment, the target named is T1, Type-1 angiotensin II receptor B. Briefly: Inhibition of [125-I]-labeled angiotensin II binding to AT1 receptor in rat uterine membranes. The experiment is classed as cell membranes, Membrane.
Conditions: not given
For the molecule `CCCCc1nc(Cl)c2n1[C@H](c1ccc(-c3ccccc3-c3nn[nH]n3)cc1)CC[C@@H]2N1C(=O)CCC1=O`, the IC50 worked out at 0.011 µM.

Consider `CCCCc1ncc2n1[C@H](c1ccc(-c3ccccc3-c3nn[nH]n3)cc1)CC[C@@H]2N1C(=O)CCC1=O`, for which the IC50 turned out to be 0.015 µM.

In turn, `CCCCc1cn(Cc2ccc(-c3ccccc3-c3nnn(C(c4ccccc4)(c4ccccc4)c4ccccc4)n3)cc2)c(CCCC)n1` showed an IC50 greater than 10 µM.

`CCCCc1cn(Cc2ccc(-c3ccccc3-c3nnn[nH]3)cc2)c(CCCC)n1` registered an IC50 of 0.063 µM.

On to `CCCCc1ncc2n1[C@H](c1ccc(-c3ccccc3-c3nnn(C(c4ccccc4)(c4ccccc4)c4ccccc4)n3)cc1)C[C@@H](Br)[C@@H]2N1C(=O)CCC1=O`, for which the IC50 is greater than 10 µM.

For the molecule `CCCCc1ncc2n1C(c1ccc(-c3ccccc3-c3nnn[nH]3)cc1)CC=C2` (stereo not given), the IC50 came out at 0.12 µM.

`CCCCn1nc2n(c1=O)C(c1ccc(-c3ccccc3-c3nn[nH]n3)cc1)CCC2` (stereo not given) came in with an IC50 greater than 10 µM.

For `CCCCn1nc2n(c1=O)C(c1ccc(-c3ccccc3-c3nnn(C(c4ccccc4)(c4ccccc4)c4ccccc4)n3)cc1)CCC2CCC` (stereo not given), the IC50 is greater than 10 µM.

As to `CCCCc1nc(CCCC)n2c1C=CCC2c1ccc(-c2ccccc2-c2nn[nH]n2)cc1` (stereo not given), the half-inhibitory concentration (IC50) is 0.19 µM.

As to `CCCCc1ncc2n1[C@H](c1ccc(-c3ccccc3-c3nnn(C(c4ccccc4)(c4ccccc4)c4ccccc4)n3)cc1)CC[C@@H]2N1C(=O)CCC1=O`, the IC50 is greater than 10 µM.
